Test results from patent US20260258032A1, “TYROSINE KINASE 2 INHIBITORS AND USES THEREOF” (BIOGEN MA INC., priority 2022, published 2026).
Counter-ions that a name gives are not always drawn.

How the values were obtained:
JH2 domain of human Tyk2 = molecular target: T1, JH2 domain of human Tyk2 (Homo sapiens, UniProt P29597); assay: JH2 biochemical assay (TR-FRET probe displacement); format: binding; conditions: JH2 biochemical assay
T1 construct: 10×His-tagged TYK2 JH2 domain (amino acid 575-876)
Summary of the method: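 A probe-displacement TR-FRET readout: compounds, tested in 3-fold, 10-point dilutions starting at […], compete with 2 nM tracer for 2 nM His-tagged JH2 (residues 575-876) detected by 0.1 nM Tb-anti-His over 60 min. IC50 comes from 4-parameter fits of normalized 520/495 nm ratios.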

[1] = tested on: Tyk2 kinase activity on STAT4; assay: pSTAT4 cell assay (MSD, NK92 cells); format: cell-based; conditions: compounds 1 hr, stimulated 15 minutes
Summary of the method: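 Cells natively expressing STAT4 and Tyk2 (NK92) are serum-starved to lower background phosphorylation, exposed to compound for 1 hr over a 10-point four-fold series starting at 10 μM, and stimulated with 30 ng/mL IL2 for 15 minutes. Phosphorylation is quantified on MSD with anti-STAT4 antibodies.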

T1 sequence (P29597 575-876): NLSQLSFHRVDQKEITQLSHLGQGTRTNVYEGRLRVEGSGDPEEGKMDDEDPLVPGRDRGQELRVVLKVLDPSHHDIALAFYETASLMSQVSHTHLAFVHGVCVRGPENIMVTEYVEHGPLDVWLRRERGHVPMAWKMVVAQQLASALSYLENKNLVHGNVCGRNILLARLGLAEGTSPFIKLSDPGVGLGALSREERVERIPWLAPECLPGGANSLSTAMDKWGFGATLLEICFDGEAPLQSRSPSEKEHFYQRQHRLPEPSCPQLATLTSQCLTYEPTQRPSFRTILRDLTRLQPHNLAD

For `CC(=O)Nc1cc2c(cn1)C1(CC1)CN2c1cc(C)nc(N2CCC2C)n1` (centres unmarked) [Example 235, N-(1′-(6-methyl-2-(2-methylazetidin-1-yl)pyrimidin-4-yl)-1′,2′-dihydrospiro[cyclopropane-1,3′-pyrrolo[3,2-c]pyridin]-6′-yl)acetamide], the IC50 (JH2 domain of human Tyk2) was ≤ 10 nM and the IC50 [1] was 100 to 1000 nM.

With `CC(=O)Nc1cc2c(cn1)C1(CC1)CN2c1cc(C)nc(N2CCC(C)(O)C2)n1` (centres unmarked) [Example 236, N-(1′-(2-(3-hydroxy-3-methylpyrrolidin-1-yl)-6-methylpyrimidin-4-yl)-1′,2′-dihydrospiro[cyclopropane-1,3′-pyrrolo[3,2-c]pyridin]-6′-yl)acetamide] the IC50 (JH2 domain of human Tyk2) was 10 to 100 nM and the IC50 [1] was ≥ 1000 nM.

For `CC(=O)Nc1cc2c(cn1)C1(CC1)CN2c1cc(C)nc(N2CC(O)C2)n1` [Example 237, N-(1′-(2-(3-hydroxyazetidin-1-yl)-6-methylpyrimidin-4-yl)-1′,2′-dihydrospiro[cyclopropane-1,3′-pyrrolo[3,2-c]pyridin]-6′-yl)acetamide], the IC50 (JH2 domain of human Tyk2) was 10 to 100 nM and the IC50 [1] was ≥ 1000 nM.

For `CC(=O)Nc1cc2c(cn1)C1(CC1)CN2c1cc(-c2cn(C)nc2C)nc(C(C)(F)F)n1` [Example 239, N-(1′-(2-(1,1-difluoroethyl)-6-(1,3-dimethyl-1H-pyrazol-4-yl)pyrimidin-4-yl)-1′,2′-dihydrospiro[cyclopropane-1,3′-pyrrolo[3,2-c]pyridin]-6′-yl)acetamide trifluoroacetate], the IC50 (JH2 domain of human Tyk2) was ≤ 10 nM and the IC50 [1] was 10 to 100 nM.

In the case of `CC(=O)Nc1cc2c(cn1)C1(CC1)CN2c1cc(-c2cnn(C)c2C)nc(C(C)(F)F)n1` [Example 240, N-(1′-(2-(1,1-difluoroethyl)-6-(1,5-dimethyl-1H-pyrazol-4-yl)pyrimidin-4-yl)-1′,2′-dihydrospiro[cyclopropane-1,3′-pyrrolo[3,2-c]pyridin]-6′-yl)acetamide trifluoroacetate], the IC50 (JH2 domain of human Tyk2) is reported as ≤ 10 nM and the IC50 [1] is reported as 10 to 100 nM.

In the case of `CC(=O)Nc1cc2c(cn1)C1(CC1)CN2c1cc(-c2ccn(C)n2)nc(C(C)(F)F)n1` [Example 241, N-(1′-(2-(1,1-difluoroethyl)-6-(1-methyl-1H-pyrazol-3-yl)pyrimidin-4-yl)-1′,2′-dihydrospiro[cyclopropane-1,3′-pyrrolo[3,2-c]pyridin]-6′-yl)acetamide], the IC50 (JH2 domain of human Tyk2) is reported as ≤ 10 nM and the IC50 [1] is reported as 10 to 100 nM.

In the case of `CC(=O)Nc1cc2c(cn1)C1(CC1)CN2c1cc(-c2ccc(C)nc2)nc(C(C)(F)F)n1` [Example 242, N-(1′-(2-(1,1-difluoroethyl)-6-(6-methylpyridin-3-yl)pyrimidin-4-yl)-1′,2′-dihydrospiro[cyclopropane-1,3′-pyrrolo[3,2-c]pyridin]-6′-yl)acetamide], the IC50 (JH2 domain of human Tyk2) is reported as ≤ 10 nM and the IC50 [1] is reported as 10 to 100 nM.

For `COc1ccc(-c2cc(N3CC4(CC4)c4cnc(NC(C)=O)cc43)nc(C(C)(F)F)n2)cn1` [Example 243, N-(1′-(2-(1,1-difluoroethyl)-6-(6-methoxypyridin-3-yl)pyrimidin-4-yl)-1′,2′-dihydrospiro[cyclopropane-1,3′-pyrrolo[3,2-c]pyridin]-6′-yl)acetamide trifluoroacetate], the IC50 (JH2 domain of human Tyk2) was ≤ 10 nM and the IC50 [1] was 10 to 100 nM.

In the case of `CC(=O)Nc1cc2c(cn1)C1(CC1)CN2c1cc(C)nc(-c2ccn(C)n2)n1` [Example 244, N-(1′-(6-methyl-2-(1-methyl-1H-pyrazol-3-yl)pyrimidin-4-yl)-1′,2′-dihydrospiro[cyclopropane-1,3′-pyrrolo[3,2-c]pyridin]-6′-yl)acetamide trifluoroacetate], the IC50 (JH2 domain of human Tyk2) is reported as 10 to 100 nM and the IC50 [1] is reported as ≥ 1000 nM.

Compound `CC(=O)Nc1cc2c(cn1)C1(CC1)CN2c1cc(C)nc(-c2cnn(C)c2)n1` [Example 245, N-(1′-(6-methyl-2-(1-methyl-1H-pyrazol-4-yl)pyrimidin-4-yl)-1′,2′-dihydrospiro[cyclopropane-1,3′-pyrrolo[3,2-c]pyridin]-6′-yl)acetamide trifluoroacetate] has an IC50 (JH2 domain of human Tyk2) of 10 to 100 nM and an IC50 [1] of 100 to 1000 nM.

With `CCn1cc(-c2nc(C)cc(N3CC4(CC4)c4cnc(NC(C)=O)cc43)n2)cn1` [Example 247, N-(1′-(2-(1-ethyl-1H-pyrazol-4-yl)-6-methylpyrimidin-4-yl)-1′,2′-dihydrospiro[cyclopropane-1,3′-pyrrolo[3,2-c]pyridin]-6′-yl)acetamide] the IC50 (JH2 domain of human Tyk2) was ≤ 10 nM and the IC50 [1] was 100 to 1000 nM.

With `CC(=O)Nc1cc2c(cn1)C1(CC1)CN2c1cc(C)nc(-c2cnn(C)c2C(F)F)n1` [Example 248, N-(1′-(2-(5-(difluoromethyl)-1-methyl-1H-pyrazol-4-yl)-6-methylpyrimidin-4-yl)-1′,2′-dihydrospiro[cyclopropane-1,3′-pyrrolo[3,2-c]pyridin]-6′-yl)acetamide] the IC50 (JH2 domain of human Tyk2) was 10 to 100 nM and the IC50 [1] was ≥ 1000 nM.

With `CC(=O)Nc1cc2c(cn1)C1(CC1)CN2c1cc(C)nc(-c2cnn(C(C)C)c2)n1` [Example 249, N-(1′-(2-(1-isopropyl-1H-pyrazol-4-yl)-6-methylpyrimidin-4-yl)-1′,2′-dihydrospiro[cyclopropane-1,3′-pyrrolo[3,2-c]pyridin]-6′-yl)acetamide] the IC50 (JH2 domain of human Tyk2) was 10 to 100 nM and the IC50 [1] was ≥ 1000 nM.

For `CC(=O)Nc1cc2c(cn1)C1(CC1)CN2c1cc(C)nc(-c2cnn(C3CC3)c2)n1` [Example 250, N-(1′-(2-(1-cyclopropyl-1H-pyrazol-4-yl)-6-methylpyrimidin-4-yl)-1′,2′-dihydrospiro[cyclopropane-1,3′-pyrrolo[3,2-c]pyridin]-6′-yl)acetamide], the IC50 (JH2 domain of human Tyk2) was 10 to 100 nM and the IC50 [1] was ≥ 1000 nM.

`CC(=O)Nc1cc2c(cn1)C1(CC1)CN2c1cc(C)nc(-c2cnn(C3COC3)c2)n1` [Example 251, N-(1′-(6-methyl-2-(1-(oxetan-3-yl)-1H-pyrazol-4-yl)pyrimidin-4-yl)-1′,2′-dihydrospiro[cyclopropane-1,3′-pyrrolo[3,2-c]pyridin]-6′-yl)acetamide trifluoroacetate] was tested, and the IC50 (JH2 domain of human Tyk2) was 10 to 100 nM and the IC50 [1] was ≥ 1000 nM.

In the case of `CC(=O)Nc1cc2c(cn1)C1(CC1)CN2c1cc(C)nc(-c2cnn(CC3CC3)c2)n1` [Example 253, N-(1′-(2-(1-(cyclopropylmethyl)-1H-pyrazol-4-yl)-6-methylpyrimidin-4-yl)-1′,2′-dihydrospiro[cyclopropane-1,3′-pyrrolo[3,2-c]pyridin]-6′-yl)acetamide trifluoroacetate], the IC50 (JH2 domain of human Tyk2) is reported as 10 to 100 nM and the IC50 [1] is reported as ≥ 1000 nM.

With `COc1ccc(-c2nc(C)cc(N3CC4(CC4)c4cnc(NC(C)=O)cc43)n2)cn1` [Example 254, N-(1′-(2-(6-methoxypyridin-3-yl)-6-methylpyrimidin-4-yl)-1′,2′-dihydrospiro[cyclopropane-1,3′-pyrrolo[3,2-c]pyridin]-6′-yl)acetamide trifluoroacetate] the IC50 (JH2 domain of human Tyk2) was 100 to 1000 nM and the IC50 [1] was ≥ 1000 nM.

With `CC(=O)Nc1cc2c(cn1)C1(CC1)CN2c1cc(C)cc(-c2ccn(C)n2)n1` [Example 256, N-(1′-(4-methyl-6-(1-methyl-1H-pyrazol-3-yl)pyridin-2-yl)-1′,2′-dihydrospiro[cyclopropane-1,3′-pyrrolo[3,2-c]pyridin]-6′-yl)acetamide trifluoroacetate] the IC50 (JH2 domain of human Tyk2) was 10 to 100 nM and the IC50 [1] was ≥ 1000 nM.

With `CC(=O)Nc1cc2c(cn1)C1(CC1)CN2c1cc(C)cc(-c2cnn(C)c2)n1` [Example 257, N-(1′-(4-methyl-6-(1-methyl-1H-pyrazol-4-yl)pyridin-2-yl)-1′,2′-dihydrospiro[cyclopropane-1,3′-pyrrolo[3,2-c]pyridin]-6′-yl)acetamide trifluoroacetate] the IC50 (JH2 domain of human Tyk2) was ≤ 10 nM and the IC50 [1] was 100 to 1000 nM.

`CC(=O)Nc1cc2c(cn1)C1(CC1)CN2c1cc(C)cc(-c2cnn(S(C)(=O)=O)c2)n1` [Example 258, N-(1′-(4-methyl-6-(1-(methylsulfonyl)-1H-pyrazol-4-yl)pyridin-2-yl)-1′,2′-dihydrospiro[cyclopropane-1,3′-pyrrolo[3,2-c]pyridin]-6′-yl)acetamide trifluoroacetate] was tested, and the IC50 (JH2 domain of human Tyk2) was 10 to 100 nM and the IC50 [1] was 100 to 1000 nM.

In the case of `CC(=O)Nc1cc2c(cn1)C1(CC1)CN2c1cc(C)cc(-c2cnn(C(F)F)c2)n1` [Example 259, N-(1′-(6-(1-(difluoromethyl)-1H-pyrazol-4-yl)-4-methylpyridin-2-yl)-1′,2′-dihydrospiro[cyclopropane-1,3′-pyrrolo[3,2-c]pyridin]-6′-yl)acetamide trifluoroacetate], the IC50 (JH2 domain of human Tyk2) is reported as ≤ 10 nM and the IC50 [1] is reported as 100 to 1000 nM.

With `CCn1cc(-c2cc(C)cc(N3CC4(CC4)c4cnc(NC(C)=O)cc43)n2)cn1` [Example 260, N-(1′-(6-(1-ethyl-1H-pyrazol-4-yl)-4-methylpyridin-2-yl)-1′,2′-dihydrospiro[cyclopropane-1,3′-pyrrolo[3,2-c]pyridin]-6′-yl)acetamide trifluoroacetate] the IC50 (JH2 domain of human Tyk2) was 10 to 100 nM and the IC50 [1] was ≥ 1000 nM.

In the case of `CC(=O)Nc1cc2c(cn1)C1(CC1)CN2c1cc(C)cc(-c2cnn(C(C)C)c2)n1` [Example 263, N-(1′-(6-(1-isopropyl-1H-pyrazol-4-yl)-4-methylpyridin-2-yl)-1′,2′-dihydrospiro[cyclopropane-1,3′-pyrrolo[3,2-c]pyridin]-6′-yl)acetamide trifluoroacetate], the IC50 (JH2 domain of human Tyk2) is reported as 10 to 100 nM and the IC50 [1] is reported as ≥ 1000 nM.

For `CC(=O)Nc1cc2c(cn1)C1(CC1)CN2c1cc(C)cc(-c2cnn(C3CC3)c2)n1` [Example 264, N-(1′-(6-(1-cyclopropyl-1H-pyrazol-4-yl)-4-methylpyridin-2-yl)-1′,2′-dihydrospiro[cyclopropane-1,3′-pyrrolo[3,2-c]pyridin]-6′-yl)acetamide trifluoroacetate], the IC50 (JH2 domain of human Tyk2) was 10 to 100 nM and the IC50 [1] was ≥ 1000 nM.

With `CC(=O)Nc1cc2c(cn1)C1(CC1)CN2c1cc(N)nc(C(C)(F)F)n1` [Example 273, N-(1′-(6-amino-2-(1,1-difluoroethyl)pyrimidin-4-yl)-1′,2′-dihydrospiro[cyclopropane-1,3′-pyrrolo[3,2-c]pyridin]-6′-yl)acetamide trifluoroacetate] the IC50 (JH2 domain of human Tyk2) was ≤ 10 nM and the IC50 [1] was 10 to 100 nM.
